From patent US20160257697A1, “THIOPHENE-SUBSTITUTED TETRACYCLIC COMPOUNDS AND METHODS OFUSE THEREOF FOR THE TREATMENT OF VIRAL DISEASES” (priority 2013, published 2016)
Like-named read-outs stand apart in the source and are kept apart here.

Columns and labels:
[1] = system: HCV replicon 2B; test: microbe, parasite or virus in culture; assay type: cell-based, Hepatitis C virus (HCV); details: Replicon Assay A
Protocol: (§1) To measure cell-based anti-HCV activity of compounds of the present invention, two complimentary assays were employed using various replicons. In the first assay (“Replicon Assay A”), replicon cells were seeded at 2000 cells/well in 384-well 384-well flat bottom tissue culture treated clear bottom plate (Corning 3707) in the presence of the test compound. […] The final concentration of DMSO was 0.5%. Fetal bovine serum was 5%, in the assay media. Cells were harvested on day 3 by removing media and washing the cells with a suitable wash buffer. The cells are lysed with the addition of 1× Qiagen lysis buffer (Cat #1062731). The replicon RNA level was measured using real time PCR (TaqMan® EZ RT-PCR, Applied Biosystems 403028) with the following primers and probes: […]
(§2) Cyclophilin RNA was used as endogenous control and was amplified in the same reaction as NS5B (multiplex PCR). The real-time RT-PCR reactions were run on ABI PRISM 7900HT Sequence Detection System using the following program: 50° C. for 2 minutes, 60° C. for 30 minutes, 95° C. for 5 minutes, 40 cycles of 94° C. for 20 sec, 55° C. for 1 minutes.
(§3) The amount of HCV replicon RNA per cell is quantified using a linear regression curve for a known nanogram (ng) amount of HCV replicon total RNA. This is established by plotting the Cycle Threshold values (Ct) from the Neo probe and primer set versus the log (ng) for each HCV replicon total RNA standard. The amount of HCV RNA for each replicon sample is calculated by taking the sample's Ct value, minus the line intercept, divided by the slope of the line. Similarly, the amount of Cyclophilin mRNA per cell is also quantified using a linear regression curve for a known nanogram (ng) amount of HCV replicon total RNA. Again, this is established by plotting the Cycle Threshold values (Ct) from the Cyclophilin probe and primer set versus the log (ng) for each HCV replicon total RNA standard.
(§4) Data for replicons 1A, 1AY93H and 2B were obtained using Replicon Assay A and data for replicons 1AQ30D and 1B were obtained using Replicon Assay B.

[2] = system: HCV replicon 1A; test: microbe, parasite or virus in culture; assay type: cell-based, Hepatitis C virus (HCV); details: replicon 1A, Replicon Assay A
Protocol: as §1, §2, §3, §4

[3] = read-out: 2B IC50, HCV replicon 2B
[4] = Hepatitis C virus, read-out: 2B IC50, HCV replicon 2B

Row | SMILES | IC50 [1, 3] [nM] | IC50 [2] [nM] | further results
1 | COC(=O)NC(C(=O)N1[C@@H]2C[C@@H]2C[C@H]1c1ncc(-c2ccc3c(c2)cc2n3C(c3ccc(C(F)F)s3)Oc3cc(-c4cnc([C@@H]5CCCN5C(=O)[C@@H](NC(=O)OC)C(C)C)[nH]4)cc(F)c3-2)[nH]1)C1C[C@@H](C)O[C@@H](C)C1 (single isomer, unassigned) [Compound 285] |  |  | IC50 ([1]; read-out: 2B IC50, replicon 2B): 0.79 nM
2 | CCCc1ccc(C2Oc3cc(-c4cnc([C@@H]5CCCN5C(=O)[C@@H](NC(=O)OC)C(C)C)[nH]4)cc(F)c3-c3cc4cc(-c5cnc([C@@H]6CCCN6C(=O)C(NC(=O)OC)C6CCOC(C)(C)C6)[nH]5)ccc4n32)s1 (single isomer, unassigned) [Compound 566] | 0.31 |  | 
3 | CCCc1ccc(C2Oc3cc(-c4cnc([C@@H]5CCCN5C(=O)[C@@H](NC(=O)OC)C(C)C)[nH]4)cc(F)c3-c3cc4cc(-c5cnc([C@@H]6CCCN6C(=O)C(NC(=O)OC)C6CCOC(C)(C)C6)[nH]5)ccc4n32)s1 (single isomer, unassigned) [Compound 567] | 0.011 |  | 
4 | CCc1ccc(C2Oc3cc(-c4cnc([C@@H]5CCCN5C(=O)C(NC(=O)OC)C5CCOC(C)(C)C5)[nH]4)cc(F)c3-c3cc4cc(-c5cnc([C@@H]6CCCN6C(=O)C(NC(=O)OC)C6CCOC(C)(C)C6)[nH]5)ccc4n32)s1 (single isomer, unassigned) [Compound 294] |  | > 1.67 | 
5 | COC(=O)NC(C(=O)N1CCC[C@H]1c1ncc(-c2ccc3c(c2)cc2n3C(c3ccc(C4CC4)s3)Oc3cc(-c4cnc([C@@H]5CCCN5C(=O)[C@@H](NC(=O)OC)C(C)C)[nH]4)cc(F)c3-2)[nH]1)C1CC2CCC(C1)O2 (single isomer, unassigned) [Compound 180] |  |  | IC50 ([2]; Hepatitis C virus): 0.0025 nM
6 | COC(=O)NC(C(=O)N1[C@@H]2C[C@@H]2C[C@H]1c1ncc(-c2ccc3c(c2)cc2n3C(c3cc4ccccc4s3)Oc3cc(-c4cnc([C@@H]5CCCN5C(=O)[C@@H](NC(=O)OC)C(C)C)[nH]4)cc(F)c3-2)[nH]1)C1C[C@@H](C)O[C@@H](C)C1 (single isomer, unassigned) [Compound 646] | 0.173 |  | 
7 | COC(=O)N[C@H](C(=O)N1CCC[C@H]1c1ncc(-c2cc(F)c3c(c2)OC(c2ccc(C4CC4(F)F)s2)n2c-3cc3cc(-c4cnc([C@@H]5CCCN5C(=O)[C@@H](NC(=O)OC)C(C)C)[nH]4)ccc32)[nH]1)C(C)C (single isomer, unassigned) [Compound 119] |  |  | IC50 ([1]; read-out: 2B IC50, replicon 2B): 0.073 nM
8 | COC(=O)NC(C(=O)N1CCC[C@H]1c1ncc(-c2ccc3c(c2)cc2n3C(c3ccc(C(C)C)s3)Oc3cc(-c4cnc([C@@H]5CCCN5C(=O)[C@@H](NC(=O)OC)C(C)C)[nH]4)cc(F)c3-2)[nH]1)C1C[C@@H](C)O[C@@H](C)C1 (single isomer, unassigned) [Compound 233] |  | 0.066 | 
9 | CCCc1ccc(C2Oc3cc(-c4cnc([C@@H]5CCCN5C(=O)[C@@H](NC(=O)OC)C(C)C)[nH]4)cc(F)c3-c3cc4cc(-c5cnc([C@@H]6C[C@H]7C[C@H]7N6C(=O)[C@@H](NC(=O)OC)C(C)C)[nH]5)ccc4n32)s1 (single isomer, unassigned) [Compound 562] | 0.754 |  | 
10 | CCCc1ccc(C2Oc3cc(-c4cnc([C@@H]5CCCN5C(=O)[C@@H](NC(=O)OC)C(C)C)[nH]4)cc(F)c3-c3cc4cc(-c5cnc([C@@H]6C[C@H]7C[C@H]7N6C(=O)[C@@H](NC(=O)OC)C(C)C)[nH]5)ccc4n32)s1 (single isomer, unassigned) [Compound 561] | 0.23 |  | 
11 | COC(=O)NC(C(=O)N1CCC[C@H]1c1ncc(-c2ccc3c(c2)cc2n3C(c3ccc(C4CC4)s3)Oc3cc(-c4cnc([C@@H]5CCCN5C(=O)[C@@H](NC(=O)OC)C(C)C)[nH]4)cc(C)c3-2)[nH]1)C1CCOC(C)(C)C1 (single isomer, unassigned) [Compound 565] |  |  | IC50 [1, 4]: 0.17 nM
12 | COC(=O)N[C@H](C(=O)N1CCC[C@H]1c1ncc(-c2cc(F)c3c(c2)OC(c2ccc(C4CC4(F)F)s2)n2c-3cc3cc(-c4cnc([C@@H]5CCCN5C(=O)[C@@H](NC(=O)OC)C(C)C)[nH]4)ccc32)[nH]1)C(C)C (single isomer, unassigned) [Compound 116] |  |  | IC50 ([1]; read-out: 2B IC50, replicon 2B): 1.85 nM
13 | COC(=O)NC(C(=O)N1CCC[C@H]1c1ncc(-c2ccc3c(c2)cc2n3C(c3ccc(C4CC4)s3)Oc3cc(-c4cnc([C@@H]5CCCN5C(=O)[C@@H](NC(=O)OC)C(C)C)[nH]4)cc(F)c3-2)[nH]1)C1CN(C(=O)C2CC2)C1 (single isomer, unassigned) [Compound 268] |  | 0.045 | 
14 | COC(=O)NC(C(=O)N1CCC[C@H]1c1ncc(-c2ccc3c(c2)cc2n3C(c3ccc(C4CC4)s3)Oc3cc(-c4cnc([C@@H]5CCCN5C(=O)[C@@H](NC(=O)OC)C(C)C)[nH]4)cc(F)c3-2)[nH]1)C1CN(C(=O)C2CC2)C1 (single isomer, unassigned) [Compound 270] |  | 0.62 | 
15 | CCc1ccc(C2Oc3cc(-c4cnc([C@@H]5CCCN5C(=O)C(NC(=O)OC)C5CCOC(C)(C)C5)[nH]4)cc(F)c3-c3cc4cc(-c5cnc([C@@H]6CCCN6C(=O)C(NC(=O)OC)C6CCOC(C)(C)C6)[nH]5)ccc4n32)s1 (single isomer, unassigned) [Compound 293] |  | > 1.67 | 
16 | CCc1ccc(C2Oc3cc(-c4cnc([C@@H]5CCCN5C(=O)C(NC(=O)OC)C5C[C@@H](C)O[C@@H](C)C5)[nH]4)cc(F)c3-c3cc4cc(-c5cnc([C@@H]6CCCN6C(=O)[C@@H](NC(=O)OC)C(C)C)[nH]5)ccc4n32)s1 (single isomer, unassigned) [Compound 155] |  | 0.167 | 
17 | C=C(C)C1Oc2cc(-c3cnc([C@@H]4CCCN4C(=O)[C@@H](N)C(C)C)[nH]3)cc(F)c2-c2cc3cc(-c4cnc([C@@H]5C[C@H]6C[C@H]6N5C(C)=O)[nH]4)ccc3n21 (single isomer, unassigned) [Compound 571] | 0.087 |  | 
18 | C=C(C)C1Oc2cc(-c3cnc([C@@H]4CCCN4C(=O)[C@@H](N)C(C)C)[nH]3)cc(F)c2-c2cc3cc(-c4cnc([C@@H]5C[C@H]6C[C@H]6N5C(C)=O)[nH]4)ccc3n21 (single isomer, unassigned) [Compound 572] | 0.031 |  | 
19 | COC(=O)NC(C(=O)N1CCC[C@H]1c1ncc(-c2cc(F)c3c(c2)OC(c2ccc(C4CC4)s2)n2c-3cc3cc(-c4cnc([C@@H]5CCCN5C(=O)C(NC(=O)OC)C5C[C@@H](C)O[C@@H](C)C5)[nH]4)ccc32)[nH]1)C1C[C@@H](C)O[C@@H](C)C1 (single isomer, unassigned) [Compound 302] |  | > 13 | 
20 | COC(=O)NC(C(=O)N1CCC[C@H]1c1ncc(-c2ccc3c(c2)cc2n3C(c3ccc(CC(F)(F)F)s3)Oc3cc(-c4cnc([C@@H]5CCCN5C(=O)[C@@H](NC(=O)OC)C(C)C)[nH]4)cc(F)c3-2)[nH]1)C1CCOC(C)(C)C1 (single isomer, unassigned) [Compound 425] |  |  | IC50 [1, 4]: 0.011 nM
21 | COC(=O)N[C@H](C(=O)N1CCC[C@H]1c1ncc(-c2cc(F)c3c(c2)OC(c2ccc(C4CC4(F)F)s2)n2c-3cc3cc(-c4cnc([C@@H]5CCCN5C(=O)[C@@H](NC(=O)OC)C(C)C)[nH]4)ccc32)[nH]1)C(C)C (single isomer, unassigned) [Compound 117] |  |  | IC50 ([1]; read-out: 2B IC50, replicon 2B): 0.028 nM
22 | COC(=O)NC(C(=O)N1CCC[C@H]1c1ncc(-c2ccc3c(c2)cc2n3C(c3cc4c(s3)CCC4)Oc3cc(-c4cnc([C@@H]5CCCN5C(=O)[C@@H](NC(=O)OC)C(C)C)[nH]4)cc(F)c3-2)[nH]1)C1C[C@@H](C)O[C@@H](C)C1 (single isomer, unassigned) [Compound 204] |  |  | IC50 ([1]; Hepatitis C virus, read-out: 2B IC50 (nM), replicon 2B): 0.26 nM
